In patent US7368453B2, “Quinazolinone compounds with reduced bioaccumulation” (Chiron Corporation, priority 2003, dated 2008):
Where two headings read alike, the source gives them in different places.

Test: Tissue half-life (t1/2) and Cmax in plasma, brain, kidney and liver after oral administration to CD-1 mice
Format: in vivo, mouse
Conditions: male, mouse
Experimental: In vivo studies were conducted to observe the effect of the compounds of the invention in the subject animal. Male CD-1 mice, body weight of 20 grams at arrival, were used in these studies. Mice were given 30 mg/kg of compound in HPMC/Tween solution or suspension via oral gavage. Plasma, brain, and liver samples were collected at time periods of 1, 2, 4, 8, and 24 hours post dosing. One mouse was used per time point. Thus, a total of 5 mice were used for each compound tested. For sample collection, mice were euthanized with CO2. Blood samples were taken by cardiac puncture and kept on ice. Brain and liver samples were collected immediately after bleeding and the samples were kept on dry ice. For calculation of tissue half-lives (t1/2s), the terminal rate constant k was estimated by the absolute value of the slope of a log-linear regression of the terminal phase of the tissue concentration-time profile. The tissue half-life t1/2 is ln(2)/k.
The following table includes t1/2 data for plasma, brain, kidney, and liver obtained after oral administration.
Tissue Half-Life Data for Various Quinazolinone Compounds (PO)

[1] = liver t1/2, 30 mg/kg oral gavage (PO), read-out: Half-Lives (h) Liver (converted)
[2] = plasma t1/2, 30 mg/kg oral gavage (PO), read-out: Half-Lives (h) Plasma (converted)
[3] = brain t1/2, 30 mg/kg oral gavage (PO), read-out: Half-Lives (h) Brain (converted)
[4] = kidney t1/2, 30 mg/kg oral gavage (PO), read-out: Half-Lives (h) Kidney (converted)

Row | half-life [1] [h] | half-life [2] [h] | half-life [3] [h] | half-life [4] [h] | SMILES
1 | 4.2 | 7.7 |  |  | C[C@@H]1[C@@H](N=C(Nc2ccc3c(=O)n(CCc4ccc(Cl)cc4)c(-c4c[nH]c5ccccc45)nc3c2)N2CC(=O)N[C@@H](C)C2)C[C@H]2C[C@@H]1C2(C)C [Example 236, (3S)-N-[3-[2-(4-chlorophenyl)ethyl]-2-(1H-indol-3-yl)-4-oxo-3,4-dihydroquinazolin-7-yl]-3-methyl-5-oxo-N′-[(1S,2S,3S,5R)-2,6,6-trimethylbicyclo[3.1.1]hept-3-yl]piperazine-1-carboximidamide]
2 | 4.9 | 3.5 | 2.6 |  | COc1ccc(CCn2c(-c3cnccn3)nc3cc(NC(=N[C@H]4C[C@H]5C[C@@H]([C@@H]4C)C5(C)C)N4CCN[C@@H](C(F)F)C4)ccc3c2=O)c(F)c1 [Example 234, (3R)-3-(difluoromethyl)-N-{3-[2-(2-fluoro-4-methoxyphenyl)ethyl]-4-oxo-2-pyrazin-2-yl-3,4-dihydroquinazolin-7-yl}-N′-[(1S,2S,3S,5R)-2,6,6-trimethylbicyclo[3.1.1]hept-3-yl]piperazine-1-carboximidamide]
3 | 5.6 | 4.7 | 6.1 |  | C[C@@H]1[C@@H](N=C(Nc2ccc3c(=O)n(CCc4ccc(Cl)cc4)c(-c4cnccn4)nc3c2)N2CCN[C@@H](C(F)F)C2)C[C@H]2C[C@@H]1C2(C)C [Example 235, (3R)-N-{3-[2-(4-chlorophenyl)ethyl]-4-oxo-2-pyrazin-2-yl-3,4-dihydroquinazolin-7-yl}-3-(difluoromethyl)-N′-[(1 S,2S,3S,5R)-2,6,6-trimethylbicyclo[3.1.1]hept-3-yl]piperazine-1-carboximidamide]
4 | 8.8 | 26 | 3 | 5.7 | COc1ccc(CCn2c(-c3ccncc3)nc3cc(NC(=N[C@H]4C[C@H]5C[C@@H]([C@@H]4C)C5(C)C)N4CCN[C@@H](CF)C4)ccc3c2=O)c(F)c1 [Example 250]
5 | 2.1 | 1.9 | 14 | 2.7 | COc1ccc(CCn2c(-c3cccnc3)nc3cc(NC(=N[C@H]4C[C@H]5C[C@@H]([C@@H]4C)C5(C)C)N4CC(=O)N[C@@H](C)C4)ccc3c2=O)c(F)c1 [Example 216, (3S)-N-{3-[2-(2-fluoro-4-methoxyphenyl)ethyl]-4-oxo-2-pyridin-3-yl-3,4-dihydroquinazolin-7-yl}-3-methyl-5-oxo-N′-[(1S,2S,3S,5R)-2,6,6-trimethylbicyclo[3.1.1]hept-3-yl]piperazine-1-carboximidamide]
6 | 5.9 | 3.1 |  |  | C[C@@H]1[C@@H](N=C(Nc2ccc3c(=O)n(CCc4ccc(Br)cc4)c(-c4cccnc4)nc3c2)N2CC(=O)N[C@@H](C)C2)C[C@H]2C[C@@H]1C2(C)C [Example 230, (3S)-N-{3-[2-(4-bromophenyl)ethyl]-4-oxo-2-pyridin-3-yl-3,4-dihydroquinazolin-7-yl}-3-methyl-5-oxo-N′-[(1S,2S,3S,5R)-2,6,6-trimethylbicyclo[3.1.1]hept-3-yl]piperazine-1-carboximidamide]
7 | 3.1 | 3 | 10 |  | COc1ccc(CCn2c(NC3CC3)nc3cc(NC(=N[C@H]4C[C@H]5C[C@@H]([C@@H]4C)C5(C)C)N4CC(=O)N[C@@H](C)C4)ccc3c2=O)c(F)c1 [Example 224, (3S)-N-{2-(cyclopropylamino)-3-[2-(2-fluoro-4-methoxyphenyl)ethyl]-4-oxo-3,4-dihydroquinazolin-7-yl}-3-methyl-5-oxo-N′-[(1S,2S,3S,5R)-2,6,6-trimethylbicyclo[3.1.1]hept-3-yl]piperazine-1-carboximidamide]
8 |  | 4.5 | 3.6 |  | COc1ccc(CCn2c(CN3CCN(C)CC3)nc3cc(NC(=N[C@H]4C[C@H]5C[C@@H]([C@@H]4C)C5(C)C)N4CC(=O)N[C@@H](C)C4)ccc3c2=O)c(F)c1 [Example 239, (3S)-N-{3-[2-(2-fluoro-4-methoxyphenyl)ethyl]-2-[(4-methylpiperazin-1-yl)methyl]-4-oxo-3,4-dihydroquinazolin-7-yl}-3-methyl-5-oxo-N-[(1S,2S,3S,5R)-2,6,6-trimethylbicyclo[3.1.1]hept-3-yl]piperazine-1-carboximidamide]
9 | 16 | 9 | 13 |  | C[C@@H]1C(/N=C(/Nc2ccc3c(=O)n(CCc4ccc(Cl)cc4Cl)c(-c4cnccn4)nc3c2)N2CC(=O)N[C@@H](C)C2)C[C@H]2C[C@@H]1C2(C)C (stereo partly drawn) [Example 229, (3S)-N-{3-[2-(2,4-dichlorophenyl)ethyl]-4-oxo-2-pyrazin-2-yl-3,4-dihydroquinazolin-7-yl}-3-methyl-5-oxo-N′-[(1S,2S3S,5R)-2,6,6-trimethylbicyclo[3.1.1]hept-3-yl]piperazine-1-carboximidamide]
10 | 2.9 | 2.9 | 6.9 |  | COc1ccc(CCn2c(N3CCOCC3)nc3cc(NC(=N[C@H]4C[C@H]5C[C@@H]([C@@H]4C)C5(C)C)N4CC(=O)N[C@@H](C)C4)ccc3c2=O)c(F)c1 [Example 221, (3S)-N-{3-[2-(2-fluoro-4-methoxyphenyl)ethyl]-2-morpholin-4-yl-4-oxo-3,4-dihydroquinazolin-7-yl}-3-methyl-5-oxo-N′-[(1S,2S,3S,5R)-2,6,6-trimethylbicyclo[3.1.1]hept-3-yl]piperazine-1-carboximidamide]
11 | 44 | 6.4 | 15 |  | C[C@@H]1[C@@H](N=C(Nc2ccc3c(=O)n(CCc4ccc(Br)cc4F)c(-c4cnccn4)nc3c2)N2CCN[C@@H](C(F)F)C2)C[C@H]2C[C@@H]1C2(C)C [Example 233, (3R)-N-{3-[2-(4-bromo-2-fluorophenyl)ethyl]-4-oxo-2-pyrazin-2-yl-3,4-dihydroquinazolin-7-yl}-3-(difluoromethyl)-N′-[(1S,2S,3S,5R)-2,6,6-trimethylbicyclo[3.1.1]hept-3-yl]piperazine-1-carboximidamide]
12 |  | 7.2 |  | 7.3 | C[C@@H]1[C@@H](/N=C(/Nc2ccc3c(=O)n(CCc4ccc(Cl)cc4Cl)cnc3c2)N2CCNC(=O)C2)C[C@@H]2C[C@H]1C2(C)C [Example 260, N-{3-[2-(2,4-dichlorophenyl)ethyl]-4-oxo-3,4-dihydroquinazolin-7-yl]-3-oxo-N′-[(1R,2S,3S,5S)-2,6,6-trimethylbicyclo[3.1.1]hept-3-yl]piperazine-1-carboximidamide]
13 | 9.4 | 3.9 |  |  | C[C@@H]1[C@@H](N=C(Nc2ccc3c(=O)n(CCc4ccc(Br)cc4)c(-c4cccnc4)nc3c2)N2CCN[C@@H](C(F)F)C2)C[C@H]2C[C@@H]1C2(C)C [Example 227, (3R)-N-{3-[2-(4-bromophenyl)ethyl]-4-oxo-2-pyridin-3-yl-3,4-dihydroquinazolin-7-yl}-3-(difluoromethyl)-N′-[(1S,2S,3S,5R)-2,6,6-trimethylbicyclo[3.1.1]hept-3-yl]piperazine-1-carboximidamide]
14 | 1.2 | 1.1 |  |  | COc1ccc(CCn2cnc3cc(N/C(=N/[C@H]4C[C@@H]5C[C@H]([C@@H]4C)C5(C)C)N(C)CCO)ccc3c2=O)c(F)c1 [Example 288]
15 | 3.2 | 4.9 |  | 3.3 | COc1ccc(CCn2c(-c3cccnc3)nc3cc(N/C(=N/[C@H]4C[C@@H]5C[C@H]([C@@H]4C)C5(C)C)N4C[C@@H](C)N(O)[C@@H](C)C4)ccc3c2=O)c(F)c1 [Example 296, (3R,5S)-N-[3-{2-[2-fluoro-4-(methyloxy)phenyl]ethyl}-4-oxo-2-(3-pyridinyl)-3,4-dihydro-7-quinazolinyl]-4-hydroxy-3,5-dimethyl-N′-[(1R,2S,3S,5S)-2,6,6-trimethylbicyclo[3.1.1]hept-3-yl]-1-piperazinecarboximidamide]
16 | 9.5 | 3.3 | 4.9 |  | COc1ccc(CCn2c(-c3cccnc3)nc3cc(N/C(=N/[C@H]4C[C@@H]5C[C@H]([C@@H]4C)C5(C)C)N4C[C@@H](C)N(C#N)[C@@H](C)C4)ccc3c2=O)c(F)c1 [Example 295]
17 | 2.7 | 1.1 | 8 |  | C[C@@H]1[C@@H](N=C(Nc2ccc3c(=O)n(CCc4ccc(Cl)cc4)c(-c4cnccn4)nc3c2)N2CC(=O)N[C@@H](C)C2)C[C@H]2C[C@@H]1C2(C)C [Example 222, (3S)-N-{3-[2-(4-chlorophenyl)ethyl]-4-oxo-2-pyrazin-2-yl-3,4-dihydroquinazolin-7-yl}-3-methyl-5-oxo-N′-[(1S,2S,3S,5R)-2,6,6-trimethylbicyclo[3.1.1]hept-3-yl]piperazine-1-carboximidamide]
18 | 16 |  |  | 8.4 | COc1ccc(CCn2c(-c3nnc[nH]3)nc3cc(NC(=N[C@H]4C[C@H]5C[C@@H]([C@@H]4C)C5(C)C)N4CCN[C@@H](CF)C4)ccc3c2=O)c(F)c1 [Example 252, (3R)-N-[3-[2-(2-fluoro-4-methoxyphenyl)ethyl]-4-oxo-2-(4H-1,2,4-triazol-3-yl)-3,4-dihydroquinazolin-7-yl]-3-(fluoromethyl)-N′-[(1S,2S,3S,5R)-2,6,6-trimethylbicyclo[3.1.1]hept-3-yl]piperazine-1-carboximidamide]
